Test results from patent US20100029615A1, “BENZIMIDAZOLE DERIVATIVES” (priority 2006, published 2010).
Counter-ions that a name gives are not always drawn.

Biological target: T1, SMO (Mus musculus, UniProt P56726)
T1 construct: endogenous in cells; host or cells: C3H10T1/2 (ATCC #CCL-226)
Test: Smoothened (SMO)/Sonic Hedgehog (SHh) Transient Transcriptional Activation Assay (Gli-luciferase reporter in C3H10T1/2 cells)
Format: cell-based, murine
Details: SHh 250 ng/ml, 20 hrs; for inhibition at 2 µM: C3H 10T1/2, 2 μM test compound, read-out: SMO CELL % INHIBITION @ 2 μM; for SMO CELL % INHIBITION @ 2 μM: 2 μM test compound
How it was run: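 Luminescence (Dual-Glo) measured after 20 h co-exposure at 37 °C to 250 ng/ml human SHh and compound at 2 uM down to 2 nM final. Cells were C3H10T1/2 carrying a transfected murine 10× Gli response-element luciferase construct with pEGFP, starved 20 h in 0.5% calf serum beforehand.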

T1 sequence (P56726 33-793): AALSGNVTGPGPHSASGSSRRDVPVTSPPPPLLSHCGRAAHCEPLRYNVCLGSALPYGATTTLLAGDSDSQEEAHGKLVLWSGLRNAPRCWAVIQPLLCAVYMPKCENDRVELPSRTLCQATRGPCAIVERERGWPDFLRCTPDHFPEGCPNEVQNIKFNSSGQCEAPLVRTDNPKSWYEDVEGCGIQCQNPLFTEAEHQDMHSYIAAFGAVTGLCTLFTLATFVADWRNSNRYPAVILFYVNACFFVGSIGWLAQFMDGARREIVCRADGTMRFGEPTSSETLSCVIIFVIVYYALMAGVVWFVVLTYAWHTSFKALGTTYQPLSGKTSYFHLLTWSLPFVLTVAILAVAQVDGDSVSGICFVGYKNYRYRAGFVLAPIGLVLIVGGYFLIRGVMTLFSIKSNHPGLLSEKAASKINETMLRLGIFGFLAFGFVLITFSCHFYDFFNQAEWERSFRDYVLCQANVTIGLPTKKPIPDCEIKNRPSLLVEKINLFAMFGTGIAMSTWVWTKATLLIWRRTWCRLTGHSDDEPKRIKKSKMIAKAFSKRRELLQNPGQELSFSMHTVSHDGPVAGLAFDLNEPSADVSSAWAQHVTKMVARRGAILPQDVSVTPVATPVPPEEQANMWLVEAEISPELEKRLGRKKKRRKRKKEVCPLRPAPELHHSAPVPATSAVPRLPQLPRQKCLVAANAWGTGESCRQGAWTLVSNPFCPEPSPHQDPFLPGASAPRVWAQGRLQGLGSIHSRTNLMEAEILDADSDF

Row | Compound | inhibition at 2 µM [%] | also measured
1 | Cn1c(C23CCCC(NC(=O)c4ccc5c(c4)OC(F)(F)O5)(C2)C3)nc2ccccc21 [Example 250, 2,2-difluoro-N-(5-(1-methyl-1H-benzo[d]imidaz-ol-2-yl)bicyclo[3.1.1]heptan-1-yl)benzo[d][1,3] dioxole-5-carboxamide] | 94 | 
2 | O=C(N[C@@H]1CCCC(c2nc3ccccc3[nH]2)C1)c1ccc2c(c1)OC(F)(F)O2 (stereo partly drawn) [Example 251, N-((1R,3S)-3-(1H-benzo[d]imidaz-ol-2-yl)cyclohexyl)-2,2-difluorobenzo[d] [1,3]dioxole-5-carboxamide] | 102 | 
3 | COc1cc(OC)cc(C(=O)N[C@H]2CCC[C@H](c3nc4ccccc4[nH]3)C2)c1 [Example 252, N-(3-(1H-benzo[d]imidaz-ol-2-yl)cyclohexyl)-3,5-dimethoxybenz-amide HCl] | 46 | 
4 | O=C(N[C@@H]1CCC[C@H](c2nc3ccccc3[nH]2)C1)c1cc2c(cn1)OCCO2 [Example 253, N-((1R,3S)-3-(1H-benzo[d]imidaz-ol-2-yl)cyclohexyl)-2,3-dihydro-[1,4]dioxino[2,3-c]pyridine-7-carboxamide] | 100 | 
5 | COc1ccc2[nH]c([C@H]3CCC[C@H](NC(=O)c4ccc5c(c4)OCCO5)C3)nc2c1 [Example 254, N-(3-(5-methoxy-1H-benzo[d]imidaz-ol-2-yl)cyclohexyl)-2,3-dihydrobenzo[b] [1,4]dioxine-6-carboxamide HCl] | 91 | 
6 | O=C(Nc1ccc(F)c(C(F)(F)F)c1)NC12CCCC(c3nc4ccccc4[nH]3)(C1)C2 [Example 255, 1-(5-(1H-benzo[d]imidaz-ol-2-yl)bicyclo[3.1.1]heptan-1-yl)-3-(4-fluoro-3-(trifluoromethyl)phenyl)urea HCL] | 101 | 
7 | N#Cc1ccc(NC(=O)NC23CCCC(c4nc5ccccc5[nH]4)(C2)C3)cc1 [Example 256, 1-(5-(1H-benzo[d]imidaz-ol-2-yl)bicyclo[3.1.1]heptan-1-yl)-3-(4-cyanophenyl)-urea HCl] | 94 | 
8 | O=C(NC12CCCC(c3nc4cc(C(F)(F)F)ccc4[nH]3)(C1)C2)c1ccc2c(c1)OCCO2 [Example 257, N-{5-[5-(trifluoromethyl)-1H-benzimidazol-2-yl]bicyclo[3.1.1]hept-1-yl}-2,3-dihydro-1,4-benzodioxine-6-carboxamide] | 107 | 
9 | Cl.O=C(NC12CCCC(c3nc4cc(C(F)(F)F)ccc4[nH]3)(C1)C2)c1ccc2c(c1)OCCO2 [Example 258, N-{5-[5-(trifluoromethyl)-1H-benzimidazol-2-yl]bicyclo[3.1.1]hept-1-yl}-2,3-dihydro-1,4-benzodioxine-6-carboxamide HCL] |  | SMO CELL % INHIBITION @ 2 μM: 99.22%
10 | COc1cc(OC)cc(C(=O)NC23CCCC(c4nc5cc(C(F)(F)F)ccc5[nH]4)(C2)C3)c1 [Example 259, 3,5-dimethoxy-N-{5-[5-(trifluoromethyl)-1H-benzimidazol-2-yl)bicyclo[3.1.1]hept-1-yl}benzamide] | 95.5 | 
11 | COc1cc(OC)cc(C(=O)NC23CCCC(c4nc5cc(C(F)(F)F)ccc5[nH]4)(C2)C3)c1 [Example 260, 3,5-dimethoxy-N-{5-[5-(trifluoromethyl)-1H-benzimidazol-2-yl]bicyclo[3.1.1]hept-1-yl}benzamide HCl] |  | SMO CELL % INHIBITION @ 2 μM (HCl, 2 µM): 101.34%
12 | N#Cc1ccc(NC(=O)NC23CCCC(c4nc5cc(C(F)(F)F)ccc5[nH]4)(C2)C3)cc1 [Example 261, 1-(4-cyanophenyl)-3-{5-[5-(trifluoromethyl)-1H-benzimidazol-2-yl]bicyclo[3.1.1]hept-1-yl}urea] | 78.8 | 
13 | N#Cc1ccc(NC(=O)NC23CCCC(c4nc5cc(C(F)(F)F)ccc5[nH]4)(C2)C3)cc1 [Example 262, 1-(4-cyanophenyl)-3-{5-[5-(trifluoromethyl)-1H-benzimidazol-2-yl]bicyclo[3.1.1]hept-1-yl}urea HCl] |  | SMO CELL % INHIBITION @ 2 μM (HCl, 2 µM): 89%
14 | O=C(NC12CCCC(c3nc4cc(C(F)(F)F)ccc4[nH]3)(C1)C2)c1cc2c(cn1)OCCO2 [Example 263, N-{5-[5-(trifluoromethyl)-1H-benzimidazol-2-yl]bicyclo[3.1.1]hept-1-yl}-2,3-dihydro[1,4]di-oxino[2,3-c]pyridine-7-carboxamide] | 91.4 | 
15 | O=C(NC12CCCC(c3nc4cc(C(F)(F)F)ccc4[nH]3)(C1)C2)c1cc2c(cn1)OCCO2 [Example 264, N-{5-[5-(trifluoromethyl)-1H-benzimidazol-2-yl]bicyclo[3.1.1]hept-1-yl}-2,3-dihydro[1,4]di-oxino[2,3-c]pyridine-7-carboxamide HCl] |  | SMO CELL % INHIBITION @ 2 μM (HCl, 2 µM): 94.31%
16 | O=C(N[C@@H]1CCC[C@H](c2nc3ccccc3[nH]2)C1)c1ccc2c(c1)CCCO2 [Example 265, N-[(1R,3S)-3-(1H-benzimidazol-2-yl)cyclohexyl] chromane-6-carboxamide] | 103 | 
17 | O=C(N[C@@H]1CCC[C@H](c2nc3ccccc3[nH]2)C1)c1ccc2c(c1)CCCO2 [Example 266, N-[(1R,3S)-3-(1H-benzimidazol-2-yl)cyclohexyl] chromane-6-carboxamide HCl] |  | SMO CELL % INHIBITION @ 2 μM (HCl, 2 µM): 102.05%

Row | Compound | inhibition at 2 µM [%] | also measured
18 | O=C(N[C@@H]1CCC[C@H](c2nc3ccccc3[nH]2)C1)c1ccc2c(c1)CN(CC1CC1)CC2 [Example 267, N-[(1R,3S)-3-(1H-benzimidazol-2-yl)cyclohexyl]-2-(cyclopropyl-methyl)-1,2,3,4-tetrahydroiso-quinoline-7-carboxamide HCl] | 103 | 
19 | CN1[C@H](C(=O)N[C@@H]2CCC[C@H](c3nc4ccccc4[nH]3)C2)C[C@@H]2CCCC[C@@H]21 [Example 268, (2S,3aS,7aS)-N-[(1R,3S)-3-(1H-benzimidazol-2-yl)cyclohexyl]-1-methyloctahy-dro-1H-indole-2-carboxamide HCl] | 50.7 | 
20 | COc1cc(OC)cc(C(=O)NC23CCCC(c4nc5cc(Cl)ccc5[nH]4)(C2)C3)c1 [Example 269, N-[5-(5-chloro-1H-benzimidazol-2-yl)bicyclo[3.1.1]hept-1-yl]-3,5-dimethoxybenz-amide] | 107 | 
21 | N#Cc1ccc(NC(=O)NC23CCCC(c4nc5cc(Cl)ccc5[nH]4)(C2)C3)cc1 [Example 270, 1-[5-(5-chloro-1H-benzimidazol-2-yl)bicyclo[3.1.1]hept-1-yl]-3-(4-cyanophenyl) urea] | 107 | 
22 | O=C(NC12CCCC(c3nc4cc(Cl)ccc4[nH]3)(C1)C2)c1cc2c(cn1)OCCO2 [Example 271, N-[5-(5-chloro-1H-benzimidazol-2-yl)bicyclo[3.1.1]hept-1-yl]-2,3-dihydro[1,4]di-oxino[2,3-c]pyridine-7-carboxamide] | 84.7 | 
23 | O=C(NC12CCCC(c3nc4cc(Cl)ccc4[nH]3)(C1)C2)c1ccc2c(c1)OCCO2 [Example 272, N-[5-(5-chloro-1H-benzimidazol-2-yl)bicyclo[3.1.1]hept-1-yl]-2,3-dihydro-1,4-benzodioxine-6-carboxamide] | 110 | 
24 | [N-]=[N+]=Nc1ccc(C(=O)NC23CCCC(c4nc5cc(C(F)(F)F)ccc5[nH]4)(C2)C3)cc1 [Example 273, 4-azido-N-{5-[5-(trifluoromethyl)-1H-benzimidazol-2-yl]bicyclo[3.1.1]hept-1-yl}benzamide] | 93.2 | 
25 | O=C(NC12CCCC(c3nc4cc(C(F)(F)F)ccc4[nH]3)(C1)C2)c1ccc(C(=O)C(F)(F)F)cc1 [Example 274, 4-(trifluoroacetyl)-N-{5-[5-(trifluoromethyl)-1H-benzimidazol-2-yl]bicyclo[3.1.1]hept-1-yl}benzamide] | 105 | 
26 | O=C(NC12CCCC(c3nc4cc(C(F)(F)F)ccc4[nH]3)(C1)C2)c1ccc(C(=O)c2ccccc2)cc1 [Example 275, 4-benzoyl-N-{5-[5-(trifluoromethyl)-1H-benzimidazol-2-yl]bicyclo[3.1.1]hept-1-yl}benzamide] | 89 | 
27 | O=C(NC12CCCC(c3nc4cc(C(F)(F)F)ccc4[nH]3)(C1)C2)c1ccc2c(c1)CCCO2 [Example 276, N-{5-[5-(trifluoromethyl)-1H-benzimidazol-2-yl]bicyclo[3.1.1]hept-1-yl}chromane-6-carboxamide] | 84.7 | 
28 | [N-]=[N+]=Nc1ccc(C(=O)NC23CCCC(c4nc5ccccc5[nH]4)(C2)C3)cc1 [Example 277, 4-azido-N-[5-(1H-benzimidazol-2-yl)bicyclo[3.1.1]hept-1-yl]benzamide] | 82.3 | 
29 | O=C(NC12CCCC(c3nc4ccccc4[nH]3)(C1)C2)c1ccc(C(=O)c2ccccc2)cc1 [Example 278, N-[5-(1H-benzimidazol-2-yl)bicyclo[3.1.1]hept-1-yl]-4-benzoylbenz-amide] | 99.9 | 
30 | O=C(NC12CCCC(c3nc4ccccc4[nH]3)(C1)C2)c1ccc2c(c1)CCCO2 [Example 279, N-[5-(1H-benzimidazol-2-yl)bicyclo[3.1.1]hept-1-yl]chromane-6-carboxamide] | 92.6 | 
31 | CN1C(=O)COc2ccc(C(=O)N[C@@H]3CCC[C@H](c4nc5cc(C(F)(F)F)ccc5[nH]4)C3)cc21 [Example 280, 4-methyl-3-oxo-N-{(1R,3S)-3-[5-(trifluoromethyl)-1H-benzimidazol-2-yl]cyclohexyl}-3,4-dihydro-2H-1,4-benzoxazine-6-carboxamide HCl] | 112 | 
32 | O=C(N[C@@H]1CCC[C@H](c2nc3cc(C(F)(F)F)ccc3[nH]2)C1)c1n[nH]c2c1CCCC2 [Example 281, N-{(1R,3S)-3-[5-(trifluoromethyl)-1H-benzimidazol-2-yl]cyclohexyl]-4,5,6,7-tetrahydro-1H-indazol-3-carboxamide HCl] | 98.5 | 
33 | Cc1cccc(=O)n1CC(=O)N[C@@H]1CCC[C@H](c2nc3cc(C(F)(F)F)ccc3[nH]2)C1 [Example 282, 2-(6-methyl-2-oxopyridin-1(2H)-yl)-N-{(1R,3S)-3-[5-(trifluoromethyl)-1H-benzimidazol-2-yl]cyclohexyl} acetamide HCl] | 85.2 | 
